pEC50, pIC50: −log10 of the molar value.
What was measured:
[1] = biological target: T1, p38 MAPKα isoform (MAPK14) (Homo sapiens, UniProt Q16539); assay: Enzyme inhibition assay (FRET, Z-LYTE), p38 MAPKα via MAPKAP-K2 activation; format: biochemical; details: read-out: Enzyme Inhibition IC50 p38α
T1 construct: purchased Invitrogen
Protocol: (§1) The enzyme inhibitory activities of compounds disclosed herein were determined by fluorescence resonance energy transfer (FRET) using synthetic peptides labelled with both donor and acceptor fluorophores (Z-LYTE, Invitrogen Ltd., Paisley, UK). Recombinant, phosphorylated p38 MAPKγ (MAPK12:Invitrogen) was diluted in HEPES buffer, mixed with the test compound at the desired final concentrations and incubated for 2 hr at RT. The FRET peptide (2 μM) and ATP (100 μM) were added to the enzyme/compound mixture and incubated for 1 hr. Development reagent (protease) was added for 1 hr prior to detection in a fluorescence microplate reader (Varioskan® Flash, ThermoFisher Scientific). The site-specific protease cleaves non-phosphorylated peptide only and eliminates the FRET signal. Phosphorylation levels of each reaction were calculated using the ratio of coumarin emission (donor) over fluorescein emission (acceptor) for which high ratios indicate high phosphorylation and low ratios indicate low phosphorylation levels. The percentage inhibition of each reaction was calculated relative to non-inhibited control and the 50% inhibitory concentration (IC50 value) then calculated from the concentration-response curve.
For the p38 MAPKα isoform (MAPK14: Invitrogen), enzyme activity was evaluated indirectly by determining the level of activation/phosphorylation of the down-stream molecule, MAPKAP-K2. The p38 MAPKα protein was mixed with the test compound for 2 hr at RT. […] Development reagent was then added and the mixture incubated for 1 hr before detection by fluorescence completed the assay protocol.

p38 MAPKγ (MAPK12) = biological target: T2, p38 MAPKγ (MAPK12) (Homo sapiens, UniProt P53778); assay: Enzyme inhibition assay (FRET, Z-LYTE), p38 MAPKγ; format: biochemical; details: read-out: Enzyme Inhibition IC50 p38γ
T2 construct: purchased Invitrogen
T2 sequence (P53778 1-367): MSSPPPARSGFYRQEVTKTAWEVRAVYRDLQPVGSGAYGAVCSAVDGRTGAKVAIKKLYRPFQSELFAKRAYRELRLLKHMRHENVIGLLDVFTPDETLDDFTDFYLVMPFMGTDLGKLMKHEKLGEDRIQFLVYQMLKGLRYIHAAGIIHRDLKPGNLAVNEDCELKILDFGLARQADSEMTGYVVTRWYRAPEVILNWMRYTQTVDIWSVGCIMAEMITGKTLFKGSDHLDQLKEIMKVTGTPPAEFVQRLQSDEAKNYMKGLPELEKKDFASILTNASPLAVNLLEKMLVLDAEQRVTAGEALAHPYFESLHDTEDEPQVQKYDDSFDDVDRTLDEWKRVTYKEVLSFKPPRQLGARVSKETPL
Protocol: as §1

[2] = tested on: TNFα release in THP-1 cells; assay: LPS-induced TNFα release in THP-1 cells; format: cell-based, human; details: Homo sapiens
Protocol: LPS-Induced TNFα Release in THP-1 Cells
THP-1 cells, a human monocytic cell line, were stimulated with 3 μg/mL of LPS (from E. Coli; 0111:B4, Sigma) for 4 hr and the supernatant collected for determination of the TNFα concentration by sandwich ELISA (Duo-set, R&D systems). The inhibition of TNFα production was calculated at each concentration by comparison with vehicle control. The 50% inhibitory concentration (IC50) was determined from the resultant concentration-response curve.

[3] = tested on: TNFα release in d-U937 cells; assay: LPS-induced TNFα release in d-U937 cells; format: cell-based, human; details: Homo sapiens, dU937, relative to 10 μg/mL BIRB796, read-out: LPS/TNFα REC50 d-U937
Protocol: (§2) LPS-Induced TNFα/IL-8 Release in d-U937 Cells
(§3) U937 cells, a human monocytic cell line, were differentiated to macrophage-type cells by incubation with phorbol myristate acetate (PMA; 100 ng/ml) for 48 to 72 hr. Cells were pre-incubated with final concentrations of test compound for 2 hr and were then stimulated with 0.1 μg/mL of LPS (from E. Coli: O111:B4, Sigma) for 4 hr. The supernatant was collected for determination of TNFα and IL-8 concentrations by sandwich ELISA (Duo-set, R&D systems). The inhibition of TNFα production was calculated as a percentage of that achieved by 10 μg/mL of BIRB796 at each concentration of test compound by comparison against vehicle control. The relative 50% effective concentration (REC50) was determined from the resultant concentration-response curve. The inhibition of IL-8 production was calculated at each concentration of test compound by comparison with vehicle control. The 50% inhibitory concentration (IC50) was determined from the resultant concentration-response curve.

[4] = tested on: IL-8 release in d-U937 cells; assay: LPS-induced IL-8 release in d-U937 cells; format: cell-based, human; details: Homo sapiens, dU937
Protocol: as §2, §3

[5] = tested on: ICAM-1 induction in BEAS2B cells; assay: Poly I:C-induced ICAM-1 induction in BEAS2B cells; format: cell-based, human; details: Homo sapiens, BEAS-2B, read-out: PolyIC/ICAM1 IC50 BEAS2B
Protocol: Poly I:C-Induced ICAM-1 Induction in BEAS2B Cells
Poly I:C (1 μg/mL) (Invivogene Ltd., San Diego, Calif.) was transfected into BEAS2B cells (human bronchial epithelial cells, ATCC) with Oligofectamine (Invitrogen, Carlsbad, Calif.). Cells were pre-incubated with final concentrations of test compounds for 2 hr and the level of ICAM1 expression on the cell surface was determined by cell-based ELISA. At a time point 18 hr after poly I:C transfection, cells were fixed with 4% formaldehyde in PBS and then endogenous peroxidase was quenched by the addition of 0.1% sodium azide and 1% hydrogen peroxide. Cells were washed with wash-buffer (0.1% Tween in PBS: PBS-Tween). and after blocking the wells with 5% milk in PBS-Tween for 1 hr, the cells were incubated with anti-human ICAM-1 antibody (Cell Signaling Technology, Danvers, Mass.) in 1% BSA PBS overnight at 4° C. The cells were washed with PBS-Tween and incubated with the secondary antibody (HRP-conjugated anti-rabbit IgG, Dako Ltd., Glostrup, Denmark). The ICAM-1 signal was detected by adding substrate and reading the absorbance at 450 nm against a reference wavelength of 655 nm using a spectrophotometer. The cells were then washed with PBS-Tween and total cell numbers in each well were determined by reading absorbance at 595 nm after Crystal Violet staining and elution by 1% SDS solution. The measured OD 450-655 readings were corrected for cell number by dividing with the OD595 reading in each well. The inhibition of ICAM-1 expression was calculated at each concentration of test compound by comparison with vehicle control. The 50% inhibitory concentration (IC50) was determined from the resultant concentration-response curve.

[6] = tested on: Differentiated U937 cells; assay: Cell viability MTT assay; format: cell-based, human; details: negative = apparent increase in viability; for MTT Assay (Viability) 4 h d-U937, percentage loss of cell viability: 4 hr in 5% FCS; for MTT Assay (Viability) 24 h d-U937, percentage loss of cell viability: 24 h in 10% FCS
Protocol: Differentiated U937 cells were pre-incubated with each test compound under two protocols: the first for 4 hr in 5% FCS and the second in 10% FCS for 24 h. The supernatant was replaced with 200 μL of new media and 10 μL of MTT stock solution (5 mg/mL) was added to each well. After incubation for 1 hr the media were removed, 200 μL of DMSO was added to each well and the plates were shaken lightly for 1 hr prior to reading the absorbance at 550 nm. The percentage loss of cell viability was calculated for each well relative to vehicle (0.5% DMSO) treatment. Consequently an apparent increase in cell viability for drug treatment relative to vehicle is tabulated as a negative percentage.

T1 sequence (Q16539 whole entry, canonical isoform): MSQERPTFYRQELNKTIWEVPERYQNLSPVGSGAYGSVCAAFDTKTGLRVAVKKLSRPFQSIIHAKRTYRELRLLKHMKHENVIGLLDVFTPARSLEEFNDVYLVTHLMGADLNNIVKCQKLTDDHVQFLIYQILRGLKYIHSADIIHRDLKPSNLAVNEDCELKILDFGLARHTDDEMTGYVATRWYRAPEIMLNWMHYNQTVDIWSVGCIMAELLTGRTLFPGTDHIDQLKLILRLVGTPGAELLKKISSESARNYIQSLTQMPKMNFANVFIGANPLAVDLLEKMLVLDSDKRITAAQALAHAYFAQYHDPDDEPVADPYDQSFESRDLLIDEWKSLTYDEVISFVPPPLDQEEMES

| SMILES | pIC50 [1] | pIC50 (p38 MAPKγ (MAPK12)) | pIC50 [2] | pEC50 [3] | pIC50 [4] | pIC50 [5] | MTT Assay (Viability) 4 h d-U937, percentage loss of cell viability [6] | MTT Assay (Viability) 24 h d-U937, percentage loss of cell viability [6] |
| --- | --- | --- | --- | --- | --- | --- | --- | --- |
| CN(C)[C@@H]1CCN(C(=O)Nc2cc(Oc3ccc(NC(=O)Nc4cc(C(C)(C)C)nn4-c4ccc(O)cc4)c(Cl)c3Cl)ccn2)C1 [Example 11, (R)—N-(4-(4-(3-(3-tert-Butyl-1-(4-hydroxyphenyl)-1H-pyrazol-5-yl)ureido)-2,3-dichlorophenoxy)pyridin-2-yl)-3-(dimethylamino)pyrrolidine-1-carboxamide] | 7.80 | 7.41 | 9.15 | 9.10 | 8.35 | 8.74 | −1.3% | 42.0% |
| CCNC(=O)Nc1cc(Oc2ccc(NC(=O)Nc3cc(C(C)(C)C)nn3-c3ccc(OC)cc3)c(Cl)c2Cl)ccn1 [Example 12, 1-(4-(4-(3-(3-tert-Butyl-1-(4-methoxyphenyl)-1H-pyrazol-5-yl)ureido)-2,3-dichlorophenoxy)pyridin-2-yl)-3-ethylurea] | 7.61 | 7.24 | 8.80 | 8.77 | 9.70 | 8.57 | 5.0% | 24.1% |
| COc1ccc(-n2nc(C(C)(C)C)cc2NC(=O)Nc2ccc(Oc3ccnc(NC(=O)NCCN(C)C)c3)c(Cl)c2Cl)cc1 [Example 13, 1-(3-tert-Butyl-1-(4-methoxyphenyl)-1H-pyrazol-5-yl)-3-(2,3-dichloro-4-((2-(3-(2-(dimethylamino)ethyl)ureido)pyridin-4-yl)oxy)phenyl)urea] | 7.95 | 7.66 | 8.77 | 8.68 | 8.89 | 8.68 | −6.4% | 63.9% |
| COCC(=O)Nc1cc(COc2ccc(NC(=O)Nc3cc(C(C)(C)C)nn3-c3ccc(C)cc3)c(Cl)c2Cl)ccn1 [Example 14, N-(4-((4-(3-(3-tert-Butyl-1-p-tolyl-1H-pyrazol-5-yl)ureido)-2,3-dichlorophenoxy)methyl)pyridin-2-yl)-2-methoxyacetamide] | 7.77 | 7.48 | 8.21 | 7.39 | 7.15 | 7.49 | −7.9% | 49.6% |
| COCC(=O)Nc1cc(COc2ccc(NC(=O)Nc3cc(C(C)(C)C)nn3-c3ccc(OC)cc3)c(Cl)c2Cl)ccn1 [Example 15, N-(4-((4-(3-(3-tert-Butyl-1-(4-methoxyphenyl)-1H-pyrazol-5-yl)ureido)-2,3-dichlorophenoxy)methyl)pyridin-2-yl)-2-methoxyacetamide] | 7.80 | 6.97 | 7.70 | 7.08 | 6.79 | 7.51 | −12.2% | 12.4% |

The next lines start with results.

| pIC50 [1] | pIC50 (p38 MAPKγ (MAPK12)) | pIC50 [2] | pEC50 [3] | pIC50 [4] | SMILES | pIC50 [5] | MTT Assay (Viability) 4 h d-U937, percentage loss of cell viability [6] | MTT Assay (Viability) 24 h d-U937, percentage loss of cell viability [6] |
| --- | --- | --- | --- | --- | --- | --- | --- | --- |
| 7.44 | 5.84 | < 5.77 | 6.06 | 5.30 | COCC(=O)Nc1cc(COc2ccc(NC(=O)Nc3cc(C(C)(C)C)nn3-c3ccc(C)cc3)c3cccnc23)ccn1 [Example 16, N-(4-((5-(3-(3-tert-Butyl-1-p-tolyl-1H-pyrazol-5-yl)ureido)quinolin-8-yloxy)methyl)pyridin-2-yl)-2-methoxyacetamide] | < 5.77 | −8.1% | −21.3% |
| 7.27 | < 4.78 | < 5.78 | 4.79 | 4.77 | COCC(=O)Nc1cc(COc2ccc(NC(=O)Nc3cc(C(C)(C)C)nn3-c3ccc(OC)cc3)c3cccnc23)ccn1 [Example 17, N-(4-((5-(3-(3-tert-Butyl-1-(4-methoxyphenyl)-1H-pyrazol-5-yl)ureido)quinolin-8-yloxy)methyl)pyridin-2-yl)-2-methoxyacetamide] | < 5.78 | −11.5% | 4.0% |
| 7.53 | < 4.79 | 8.33 | 8.17 | 7.32 | CNC(=O)Nc1cc(COc2ccc(NC(=O)Nc3cc(C(C)(C)C)nn3-c3ccc(OC)cc3)c(Cl)c2Cl)ccn1 [Example 18, 1-(3-tert-Butyl-1-(4-methoxyphenyl)-1H-pyrazol-5-yl)-3-(2,3-dichloro-4-((2-(3-methylureido)pyridin-4-yl)methoxy)phenyl)urea] | 6.47 | 39.5% | −4.6% |
| 7.73 | 5.36 | 7.91 | 7.59 | 6.08 | Cc1ccc(-n2nc(C(C)(C)C)cc2NC(=O)Nc2ccc(OCc3ccnc(NC(=O)N4CCCC4)c3)c(Cl)c2Cl)cc1 [Example 19, N-(4-((4-(3-(3-tert-Butyl-1-(p-tolyl)-1H-pyrazol-5-yl)ureido)-2,3-dichlorophenoxy)methyl)pyridin-2-yl)pyrrolidine-1-carboxamide] | 7.63 | −13.5% | 6.9% |
